Data on 28 molecules can be found in ChEMBL document CHEMBL1126573, “Non-peptide angiotensin II receptor antagonists. 1. Design, synthesis, and biological activity of N-substituted indoles and dihydroindoles” (J Med Chem, 1993).

The target in experiment [1] is T1, Type-2 angiotensin II receptor (Rattus norvegicus, UniProt P35351).
T1 sequence (P35351 whole entry): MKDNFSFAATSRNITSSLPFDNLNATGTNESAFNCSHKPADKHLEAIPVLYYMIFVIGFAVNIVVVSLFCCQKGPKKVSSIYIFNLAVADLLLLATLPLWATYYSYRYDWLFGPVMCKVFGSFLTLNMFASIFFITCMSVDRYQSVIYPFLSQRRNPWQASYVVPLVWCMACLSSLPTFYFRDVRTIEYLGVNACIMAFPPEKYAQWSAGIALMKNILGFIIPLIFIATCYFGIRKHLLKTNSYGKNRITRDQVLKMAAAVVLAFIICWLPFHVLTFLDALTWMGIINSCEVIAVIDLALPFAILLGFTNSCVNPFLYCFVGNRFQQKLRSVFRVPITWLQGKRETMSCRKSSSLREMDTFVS
Put plainly: In vitro antagonist activity against angiotensin II receptor type 2 in rat midbrain using [125I]-Sar,Ile AII. The class given is functional.

Experiment [2] concerns the target T2, Type-1 angiotensin II receptor (Oryctolagus cuniculus, UniProt P34976).
T2 sequence (P34976 whole entry): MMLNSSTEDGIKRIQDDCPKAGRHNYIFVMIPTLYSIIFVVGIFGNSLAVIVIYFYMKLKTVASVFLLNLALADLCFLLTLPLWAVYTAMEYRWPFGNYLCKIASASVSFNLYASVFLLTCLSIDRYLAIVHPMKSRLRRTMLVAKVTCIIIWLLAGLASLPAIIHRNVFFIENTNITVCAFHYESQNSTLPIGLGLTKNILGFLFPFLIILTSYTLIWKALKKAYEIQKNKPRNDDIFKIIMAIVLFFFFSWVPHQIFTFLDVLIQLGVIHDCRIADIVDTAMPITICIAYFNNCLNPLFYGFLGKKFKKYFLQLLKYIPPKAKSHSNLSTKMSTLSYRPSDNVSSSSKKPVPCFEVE
The experiment in a line: In vitro antagonist activity against angiotensin II receptor type 1 in rabbit aorta using [125I]-Sar, Ile AII. The format is functional, tissue-based.

Structures are written as SMILES.

Consider `CCc1nc2c(C)cc(C)nc2n1Cc1ccc2c(ccn2Cc2c(Cl)cccc2C#N)c1`, for which the IC50 (commonly the point on the concentration scale where inhibition reaches its midpoint) in experiment [1] was over 30000 nM; in experiment [2], 120 nM.
Take `CCc1nc2c(C)cc(C)nc2n1Cc1ccc2c(c1)CCN2C(=O)c1c(Cl)ccc(Cl)c1C(=O)O`: the concentration for half-maximal inhibition (IC50) in experiment [1] was determined as 6500 nM; in experiment [2], 18 nM.
`CCc1nc2c(C)cc(C)nc2n1Cc1ccc2c(ccn2C(=O)c2ccccc2NC(=O)O)c1`: the IC50 in experiment [1] was 17000 nM; in experiment [2], 92 nM.
Consider `CCc1nc2c(C)cc(C)nc2n1Cc1ccc2c(ccn2C(=O)c2cc(Cl)c(Cl)cc2C(=O)O)c1`, for which the values for the half-inhibitory concentration (IC50) in experiment [1] and in experiment [2] were 1900 nM and 15 nM, respectively.
The like results for `CCc1nc2c(C)cc(C)nc2n1Cc1ccc2c(ccn2C(=O)c2ccccc2)c1` were, in that order, 8900 nM and 240 nM.
The corresponding values for `CCc1nc2c(C)cc(C)nc2n1Cc1ccc2c(c1)CCN2C(=O)c1ccccc1-c1nnn[nH]1` are over 10000 nM and 780 nM.
The corresponding values for `CCc1nc2c(C)cc(C)nc2n1Cc1ccc2c(ccn2C(=O)c2ccccc2-c2nnn[nH]2)c1` are 130 nM and 5 nM.
For the molecule `CCc1nc2c(C)cc(C)nc2n1Cc1ccc2c(ccn2Cc2ccccc2NC(=O)OC)c1`, in experiment [1], the IC50 was over 30000 nM.
`CCc1nc2c(C)cc(C)nc2n1Cc1ccc2c(ccn2Cc2ccccc2C(=O)O)c1`: the IC50 in experiment [1] is over 30000 nM.
Consider `CCc1nc2c(C)cc(C)nc2n1Cc1ccc2c(c1)CCN2C(C#N)c1ccccc1` (stereo unspecified), for which the 50% inhibitory concentration (IC50) in experiment [1] worked out at 11500 nM; in experiment [2] it was 350 nM.
`CCc1nc2c(C)cc(C)nc2n1Cc1ccc2c(c1)CCN2C(C(=O)OC)c1ccccc1` (stereo unspecified): the IC50 amounted to 16000 nM in experiment [1] and 170 nM in experiment [2].
Consider `CCc1nc2c(C)cc(C)nc2n1Cc1ccc2c(ccn2C(=O)c2c(Cl)ccc(Cl)c2C(=O)O)c1`, for which the IC50 in experiment [1] was 2700 nM; in experiment [2], 0.8 nM.
Take `CCc1nc2c(C)cc(C)nc2n1Cc1ccc2c(ccn2Cc2ccccc2-c2nn[nH]n2)c1`: the IC50 in experiment [1] is over 18000 nM; in experiment [2], 8.7 nM.
On to `CCc1nc2c(C)cc(C)nc2n1Cc1ccc2c(ccn2Cc2c(Cl)cccc2-c2nnn[nH]2)c1`, for which the 50% inhibitory concentration (IC50) in experiment [1] came out at 12000 nM; in experiment [2], 1 nM.
The like results for `CCc1nc2c(C)cc(C)nc2n1Cc1ccc2c(c1)CCN2C(C#N)c1cccc(C)c1` (stereo unspecified) were, in that order, 10500 nM and 1600 nM.
Take `CCc1nc2c(C)cc(C)nc2n1Cc1ccc2c(c1)CCN2C(C#N)c1ccccc1C` (stereo unspecified): the half-maximal inhibitory concentration (IC50) in experiment [1] was 13000 nM; in experiment [2], 1100 nM.
Consider `CCc1nc2c(C)cc(C)nc2n1Cc1ccc2c(ccn2Cc2cccc([N+](=O)[O-])c2C(=O)O)c1`, for which the IC50 was 14000 nM in experiment [1] and 160 nM in experiment [2].
Take `CCc1nc2c(C)cc(C)nc2n1Cc1ccc2c(ccn2Cc2ccccc2C(=O)OC)c1`: the IC50 in experiment [1] amounted to 21000 nM; in experiment [2], 620 nM.
In the case of `CCc1nc2c(C)cc(C)nc2n1Cc1ccc(-c2ccccc2-c2nnn[nH]2)cc1` [L-158809], the half-maximal inhibitory concentration (IC50) in experiment [1] is over 10000 nM.
For the molecule `CCc1nc2c(C)cc(C)nc2n1Cc1ccc2c(ccn2C(=O)c2ccccc2C(=O)O)c1`, the IC50 in experiment [1] stood at 6600 nM; in experiment [2], 20 nM.
`CCc1nc2c(C)cc(C)nc2n1Cc1ccc2c(ccn2C(=O)c2ccccc2C#N)c1`: the IC50 in experiment [1] was over 50000 nM; in experiment [2], 250 nM.
With `CCc1nc2c(C)cc(C)nc2n1Cc1ccc2c(c1)CCN2C(=O)c1ccccc1C#N`, the IC50 worked out at 25000 nM in experiment [1] and 670 nM in experiment [2].
As for `CCc1nc2c(C)cc(C)nc2n1Cc1ccc2c(c1)CCN2C(C(=O)O)c1ccccc1` (stereo unspecified), the half-inhibitory concentration (IC50) in experiment [1] is 14000 nM; in experiment [2] it was 82 nM.
As to `CCc1nc2c(C)cc(C)nc2n1Cc1ccc2c(ccn2Cc2ccccc2C#N)c1`, the IC50 in experiment [1] is over 30000 nM; in experiment [2], 320 nM.
In experiment [1], `CCc1nc2c(C)cc(C)nc2n1Cc1ccc2c(c1)CCN2C(C#N)c1ccc(C)cc1` (stereo unspecified) registered an IC50 of 14000 nM.
For `CCc1nc2c(C)cc(C)nc2n1Cc1ccc2c(c1)CCN2C(=O)c1ccccc1C(=O)O`, the concentration for half-maximal inhibition (IC50) in experiment [1] was determined as 10000 nM; in experiment [2], 48 nM.
Turning to `CCc1nc2c(C)cc(C)nc2n1Cc1ccc2c(c1)CCN2C(=O)c1cc(Cl)c(Cl)cc1C(=O)O`, the values for the half-maximal inhibitory concentration (IC50) in experiment [1] and in experiment [2] were 1000 nM and 170 nM, respectively.
Take `CCc1nc2c(C)cc(C)nc2n1Cc1ccc2c(c1)CCN2C(c1ccccc1)c1nnn[nH]1` (stereo unspecified): in experiment [1], the IC50 was over 30000 nM.
